These results are taken from US12123048B2, “Fluorinated 4′-alkylumbelliferyl a-D-glucopyranosides, biological sterilization indicators including the same and methods of using the same” (3M INNOVATIVE PROPERTIES COMPANY, priority 2018, dated 2024).

The nature of the data set: Fluorescence of control wells containing enzyme substrate in LB broth without spores. The data set is classed as physicochemical. The note with it: substrate 0.3 mg/mL, 60° C. The protocol:
Luria-Bertani (LB) broth was prepared by dissolving tryptone (10 g/L), yeast extract (5 g/L), and NaCl (5 g/L) in deionized water. In the examples, 6′-fluoro-4′-methylumbelliferyl α-D-glucopyranoside (0.3 mg/mL) or 5′-fluoro-4′-methylumbelliferyl α-D-glucopyranoside (0.3 mg/mL) was added to the broth. In the comparative examples, 4′-methylumbelliferyl α-D-glucopyranoside (MUG) (0.3 mg/mL) or 6′,8′-Difluoro-4′-methylumbelliferyl α-D-glucopyranoside (0.3 mg/mL) was added to the broth. The pH of the broth was adjusted to either pH 6, pH 7, pH 8, or pH 9 using 0.1 N hydrochloric acid or 1N sodium hydroxide solutions. The broth was passed through a 0.22 micron filter prior to use.
LB broth (pH 6) containing 6′-fluoro-4′-methylumbelliferyl α-D-glucopyranoside (0.3 mg/mL) (enzyme substrate of Example 1) was added to two wells (100 microliters per well) of a black 96-well microtiter plate with optically clear, flat bottom wells (NUNC #165301, Thermo Fisher Scientific, Waltham, MA). A 5 microliter aqueous suspension containing 5×10^6 Geobacillus stearothermophilus spores (ATCC 7953) was added to each well of the microtiter plate. Next, the contents of each well were mixed using a multiple aspiration/delivery sequence with the pipet. […] The top of the plate was covered with an optically clear sealing film (product #4311971, Applied Biosystems Corporation, Foster City, CA). The plate was warmed at 60° C. and shaken in a linear direction. Fluorescence readings (360 nm excitation/450 nm emission at 50% gain) were taken from the bottom of the plate. A reading was taken at an initial time point of 10 seconds and then at +1 minute intervals thereafter. A Synergy Neo2 fluorescence plate reader (BioTek Company, Winooski, VT) was used. In Table 1, the mean fluorescence values detected (RFU) at times of 10 seconds, +5 minutes, +10 minutes, and +30 minutes are reported. The mean fluorescence values detected for the control wells were 978 RFU at 10 seconds; 920 RFU at +5 minutes; 870 RFU at +10 minutes, and 746 RFU at +30 minutes.
LB broth (pH 7) containing 6′-fluoro-4′-methylumbelliferyl α-D-glucopyranoside (0.3 mg/mL) (enzyme substrate of Example 1) was added to two wells (100 microliters per well) of a black 96-well microtiter plate with optically clear, flat bottom wells (NUNC #165301, Thermo Fisher Scientific). A 5 microliter aqueous suspension containing 5×10^6 Geobacillus stearothermophilus spores (ATCC 7953) was added to each well of the microtiter plate. Next, the contents of each well were mixed using a multiple aspiration/delivery sequence with the pipet. […] The top of the plate was covered with an optically clear sealing film (product #4311971, Applied Biosystems Corporation). The plate was warmed at 60° C. and shaken in a linear direction. Fluorescence readings (360 nm excitation/450 nm emission at 50% gain) were taken from the bottom of the plate. A reading was taken at an initial time point of 10 seconds and then at +1 minute intervals thereafter. A Synergy Neo2 fluorescence plate reader (BioTek Company) was used. In Table 2, the mean fluorescence values detected (RFU) at times of 10 seconds, +5 minutes, +10 minutes, and +30 minutes are reported. The mean fluorescence values detected for the control wells were 989 RFU at 10 seconds; 936 RFU at +5 minutes; 895 RFU at +10 minutes, and 763 RFU at +30 minutes.
LB broth (pH 8) containing 6′-fluoro-4′-methylumbelliferyl α-D-glucopyranoside (0.3 mg/mL) (enzyme substrate of Example 1) was added to two wells (100 microliters per well) of a black 96-well microtiter plate with optically clear, flat bottom wells (NUNC #165301, Thermo Fisher Scientific). A 5 microliter aqueous suspension containing 5×10^6 Geobacillus stearothermophilus spores (ATCC 7953) was added to each well of the microtiter plate. Next, the contents of each well were mixed using a multiple aspiration/delivery sequence with the pipet. […]

Regarding `Cc1cc(=O)oc2c(F)c(O[C@H]3O[C@H](CO)[C@@H](O)[C@H](O)[C@H]3O)c(F)cc12` [Comparative Example A, 6′,8′-Difluoro-4′-methylumbelliferyl α-D-glucopyranoside], the “mean fluorescence values detected for the control wells” value (“mean fluorescence values detected” below) was 1,768 RFU (pH 6 LB broth, 10 seconds); 1,750 RFU (pH 6 LB broth, +5 minutes); 1,743 RFU (pH 6 LB broth, +10 minutes); 1,805 RFU (pH 6 LB broth, +30 minutes); 1,536 RFU (pH 7 LB broth, 10 seconds); 1,519 RFU (pH 7 LB broth, +5 minutes). Further, the “mean fluorescence values detected” value is listed as 1,508 RFU (pH 7 LB broth, +10 minutes); 1,439 RFU (pH 7 LB broth, +30 minutes); 2,547 RFU (pH 8 LB broth, 10 seconds); 2,601 RFU (pH 8 LB broth, +5 minutes); 2,666 RFU (pH 8 LB broth, +10 minutes); 3,020 RFU (pH 8 LB broth, +30 minutes). Further, the “mean fluorescence values detected” value by setting is: (pH 9 LB broth, 10 seconds) 1,381 RFU; (pH 9 LB broth, +5 minutes) 1,397 RFU; (pH 9 LB broth, +10 minutes) 1,496 RFU; (pH 9 LB broth, +30 minutes) 2,521 RFU.
Consider `Cc1cc(=O)oc2cc(O[C@H]3O[C@H](CO)[C@@H](O)[C@H](O)[C@H]3O)c(F)cc12` [Example 1, 6′-Fluoro-4′-methylumbelliferyl α-D-glucopyranoside], for which the “mean fluorescence values detected” value reads like this: (pH 6 LB broth, 10 seconds) 978 RFU; (pH 6 LB broth, +5 minutes) 920 RFU; (pH 6 LB broth, +10 minutes) 870 RFU; (pH 6 LB broth, +30 minutes) 746 RFU; (pH 7 LB broth, 10 seconds) 989 RFU; (pH 7 LB broth, +5 minutes) 936 RFU. Besides, the “mean fluorescence values detected” value is, setting by setting: (pH 7 LB broth, +10 minutes) 895 RFU; (pH 7 LB broth, +30 minutes) 763 RFU; (pH 8 LB broth, 10 seconds) 940 RFU; (pH 8 LB broth, +5 minutes) 884 RFU; (pH 8 LB broth, +10 minutes) 845 RFU; (pH 8 LB broth, +30 minutes) 723 RFU. Further, the “mean fluorescence values detected” value by setting is: (pH 9 LB broth, 10 seconds) 825 RFU; (pH 9 LB broth, +5 minutes) 772 RFU; (pH 9 LB broth, +10 minutes) 738 RFU; (pH 9 LB broth, +30 minutes) 633 RFU.
`Cc1cc(=O)oc2cc(O[C@H]3O[C@H](CO)[C@@H](O)[C@H](O)[C@H]3O)cc(F)c12` [Example 2, 5′-Fluoro-4′-methylumbelliferyl α-D-glucopyranoside]: the “mean fluorescence values detected” value (pH 6 LB broth, 10 seconds) is given as 828 RFU; the “mean fluorescence values detected” value (pH 6 LB broth, +5 minutes) amounted to 784 RFU; the “mean fluorescence values detected” value (pH 6 LB broth, +10 minutes) is 738 RFU; the “mean fluorescence values detected” value (pH 6 LB broth, +30 minutes) was 622 RFU; the “mean fluorescence values detected” value (pH 7 LB broth, 10 seconds) came out at 720 RFU; the “mean fluorescence values detected” value (pH 7 LB broth, +5 minutes) is listed as 679 RFU. Also, the “mean fluorescence values detected” value is 646 RFU (pH 7 LB broth, +10 minutes); 547 RFU (pH 7 LB broth, +30 minutes); 616 RFU (pH 8 LB broth, 10 seconds); 573 RFU (pH 8 LB broth, +5 minutes); 538 RFU (pH 8 LB broth, +10 minutes); 455 RFU (pH 8 LB broth, +30 minutes). The “mean fluorescence values detected” value turned out to be 501 RFU (pH 9 LB broth, 10 seconds); 449 RFU (pH 9 LB broth, +5 minutes); 421 RFU (pH 9 LB broth, +10 minutes); 365 RFU (pH 9 LB broth, +30 minutes).
Consider `Cc1cc(=O)oc2cc(O[C@H]3O[C@H](CO)[C@@H](O)[C@H](O)[C@H]3O)ccc12` [MUG, 4′-methylumbelliferyl-α-D-glucopyranoside], for which the “mean fluorescence values detected” value is, setting by setting: (pH 6 LB broth, 10 seconds) 868 RFU; (pH 6 LB broth, +5 minutes) 802 RFU; (pH 6 LB broth, +10 minutes) 756 RFU; (pH 6 LB broth, +30 minutes) 656 RFU; (pH 7 LB broth, 10 seconds) 722 RFU; (pH 7 LB broth, +5 minutes) 670 RFU. For the same compound, the “mean fluorescence values detected” value was 636 RFU (pH 7 LB broth, +10 minutes); 557 RFU (pH 7 LB broth, +30 minutes); 628 RFU (pH 8 LB broth, 10 seconds); 569 RFU (pH 8 LB broth, +5 minutes); 535 RFU (pH 8 LB broth, +10 minutes); 463 RFU (pH 8 LB broth, +30 minutes). The “mean fluorescence values detected” value is, setting by setting: (pH 9 LB broth, 10 seconds) 494 RFU; (pH 9 LB broth, +5 minutes) 436 RFU; (pH 9 LB broth, +10 minutes) 406 RFU; (pH 9 LB broth, +30 minutes) 338 RFU.
